pEC50: −log10 of the molar value. Structures can show the parent of a compound that is named as a salt.

This test concerns the target T1, 5-HT2C receptor (Homo sapiens, UniProt P28335).
T1 construct: host or cells: U2OS
As to the kind of experiment: Human 5-HT2C functional assay (beta-arrestin2 recruitment, U2OS_HTR2C_β-Arrestin cells). The test is classed as cell-based. The note with it: for pEC50: beta-arrestin2 recruitment, U2OS_HTR2C_β-Arrestin cells, 1.5 h incubation, read-out: EC50 5-HT2C (potency in functional assay); for Emax: relative efficacy vs response to 10 μM 5-HT or maximal 5-HT effect (100%). The procedure: The functional activity of compounds of formula I was assayed by incubation with U2OS_HTR2C_β-Arrestin cells (DiscoverX, 93-0289C3) to induce beta-arrestin2 recruitment to the 5-HT2C receptor. The agonist-induced recruitment and proximity of the receptor and beta-arrestin2 leads to complementation and formation of active β-galactosidase. The enzyme complementation results in enzyme activity, which is measured following the termination of the agonist incubation using DiscoveRx's detection reagent, which contains a chemiluminescent substrate which produces a high intensity signal. Cells were plated and a medium-change to a 1% serum containing medium was performed 24h later. The next day, test compounds were added and incubated for 1.5 h before addition of detection reagent.
The response produced was measured and compared with the response produced by 10 [mu]M 5-HT or the maximal effect induced by 5-HT (defined as 100%) to which it was expressed as a percentage response (relative efficacy). Dose response curves were constructed using Graphpad Prism (Graph Software Inc.) or using in house adapted software using a 4 parameter dose response model with variable slope (fit=(Bottom+(Top-Bottom)/(1+10^∧((Log EC50−x)*HillSlope))res=(y-fit)). Results are compiled in the table below.

T1 sequence (P28335 33-458): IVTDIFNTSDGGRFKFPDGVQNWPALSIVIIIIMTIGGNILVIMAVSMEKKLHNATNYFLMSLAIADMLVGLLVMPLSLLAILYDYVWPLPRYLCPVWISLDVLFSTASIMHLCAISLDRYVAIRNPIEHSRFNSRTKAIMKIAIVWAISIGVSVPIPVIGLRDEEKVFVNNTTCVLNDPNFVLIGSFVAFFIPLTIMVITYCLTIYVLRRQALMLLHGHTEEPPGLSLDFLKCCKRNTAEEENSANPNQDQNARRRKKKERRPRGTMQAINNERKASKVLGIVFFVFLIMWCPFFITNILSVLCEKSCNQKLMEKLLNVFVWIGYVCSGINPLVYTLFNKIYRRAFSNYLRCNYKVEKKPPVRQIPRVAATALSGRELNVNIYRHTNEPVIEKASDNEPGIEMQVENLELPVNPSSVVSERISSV
T1 sequence (P32121 whole entry partner): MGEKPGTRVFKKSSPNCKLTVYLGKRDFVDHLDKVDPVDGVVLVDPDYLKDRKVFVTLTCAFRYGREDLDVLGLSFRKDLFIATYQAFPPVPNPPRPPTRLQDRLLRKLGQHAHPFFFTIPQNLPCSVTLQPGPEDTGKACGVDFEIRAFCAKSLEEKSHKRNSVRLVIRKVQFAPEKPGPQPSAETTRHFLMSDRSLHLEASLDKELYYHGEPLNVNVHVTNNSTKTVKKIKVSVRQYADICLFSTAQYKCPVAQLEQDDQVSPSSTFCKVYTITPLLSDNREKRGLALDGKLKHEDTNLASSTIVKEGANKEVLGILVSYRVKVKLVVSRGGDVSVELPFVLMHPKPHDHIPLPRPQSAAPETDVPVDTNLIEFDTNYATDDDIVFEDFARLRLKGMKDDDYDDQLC

As to `COc1nc(NCC2CCC(C(F)(F)F)CC2)c(F)cc1CNC(=O)[C@@H]1CCCN1` (single isomer, unassigned) [Example 149], the pEC50 (usually the negative decadic logarithm of the EC50, by convention in mol/L) is 6.70 to 7.70. On to `COc1nc(OCc2cc(F)cc(F)c2)c(F)cc1CNC(=O)[C@@H]1CCCN1` [Example 5, (S)—N-((6-((3,5-Difluorobenzyl)oxy)-5-fluoro-2-methoxypyridin-3-yl)methyl)pyrrolidine-2-carboxamide Hydrochloride], for which the pEC50 was more than 7.70 and the Emax (commonly the maximal effect, on the per cent scale that the assay sets) was more than 70%. In the case of `COc1nc(OC[C@@H]2CCC(F)(F)C2)c(F)cc1CNC(=O)[C@@H]1CCCN1C` [Example 16, (2S)—N-[[6-[[(1R)-3,3-Difluorocyclopentyl]methoxy]-5-fluoro-2-methoxy-3-pyridyl]methyl]-1-methyl-pyrrolidine-2-carboxamide], the pEC50 is more than 7.70 and the Emax was more than 70%. For the compound `COc1nc(OC2CCC(F)(F)CC2)c(F)cc1CNC(=O)[C@@H]1C=CCN1C` [Example 21, (2S)—N-[[6-(4,4-Difluorocyclohexoxy)-5-fluoro-2-methoxy-3-pyridyl]methyl]-1-methyl-2,5-dihydropyrrole-2-carboxamide], the pEC50 was 6.70 to 7.70 and the Emax is more than 70%. As to `COc1nc(OCC23CC(C2)C3)c(F)cc1CNC(=O)[C@@H]1CCCN1` [Example 22, (S)—N-((6-(Bicyclo[1.1.1]pentan-1-ylmethoxy)-5-fluoro-2-methoxypyridin-3-yl)methyl)pyrrolidine-2-carboxamide Hydrochloride], the pEC50 is more than 7.70 and the Emax is more than 70%. On to `COc1nc(OC2CCC(F)(F)CC2)c(F)cc1CNC(=O)[C@@H]1CCN1C` [Example 39, (2S)—N-[[6-(4,4-Difluorocyclohexoxy)-5-fluoro-2-methoxy-3-pyridyl]methyl]-1-methyl-azetidine-2-carboxamide; Succinic Acid], for which the pEC50 was 6.70 to 7.70 and the Emax is 50 to 70%. For the compound `COc1nc(OCC2CC2(F)F)c(F)cc1CNC(=O)[C@@H]1CCCN1` (stereo partly drawn) [Example 41, (2S)—N-[[6-[(2,2-Difluorocyclopropyl)methoxy]-5-fluoro-2-methoxy-3-pyridyl]methyl]pyrrolidine-2-carboxamide; Succinic Acid], the pEC50 was more than 7.70 and the Emax was more than 70%. On to `COc1nc(OCCC(F)(F)C(F)(F)F)c(F)cc1CNC(=O)[C@@H]1CCCN1` [Example 45, (2S)—N-[[5-Fluoro-2-methoxy-6-(3,3,4,4,4-pentafluorobutoxy)-3-pyridyl]methyl]-pyrrolidine-2-carboxamide; Succinic Acid], for which the pEC50 was more than 7.70 and the Emax is more than 70%.

`COc1nc(OC(C)C(F)(F)C(F)(F)F)c(F)cc1CNC(=O)[C@@H]1CCCN1` (stereo partly drawn) [Example 50, (2S)—N-[[5-Fluoro-2-methoxy-6-(2,2,3,3,3-pentafluoro-1-methyl-propoxy)-3-pyridyl]methyl]pyrrolidine-2-carboxamide; Succinic Acid]: the pEC50 is more than 7.70 and the Emax is more than 70%. With `COc1nc(OC2CCCCC2C(F)(F)F)c(F)cc1CNC(=O)[C@@H]1CCCN1` (stereo partly drawn) [Example 57, (2S)—N-[[5-Fluoro-2-methoxy-6-[2-(trifluoromethyl)cyclohexoxy]-3-pyridyl]methyl]pyrrolidine-2-carboxamide; 2,2,2-trifluoroacetic Acid], the pEC50 was more than 7.70 and the Emax was more than 70%. `COc1nc(OC2CC3C(C2)C3(F)F)c(F)cc1CNC(=O)C1CCCN1C` (stereo not drawn) [Example 64, N-[[6-[(6,6-Difluoro-3-bicyclo[3.1.0]hexanyl)oxy]-5-fluoro-2-methoxy-3-pyridyl]methyl]-1-methyl-pyrrolidine-2-carboxamide Dihydrochloride]: the pEC50 was more than 7.70 and the Emax is more than 70%.

Take `COc1nc(OC2CCC(OC(F)F)CC2)c(F)cc1CNC(=O)[C@@H]1CCCN1` (stereo partly drawn) [Example 67, (2S)—N-[[6-[4-(Difluoromethoxy)cyclohexoxy]-5-fluoro-2-methoxy-3-pyridyl]-methyl]pyrrolidine-2-carboxamide]: the pEC50 is more than 7.70 and the Emax is more than 70%. On the same counts, the results for `COc1nc(OCC(F)(C(F)(F)F)C(F)(F)F)c(F)cc1CNC(=O)[C@@H]1CCCN1` [Example 69, (S)—N-((5-Fluoro-2-methoxy-6-(2,3,3,3-tetrafluoro-2-(trifluoromethyl)propoxy)pyridin-3-yl)methyl)pyrrolidine-2-carboxamide Hydrochloride] are more than 7.70 and more than 70%.

For `COc1nc(OCC23CC4CC(CC(C4)C2)C3)c(F)cc1CNC(=O)[C@@H]1CCCN1` [Example 70, (2S)—N-[[6-(1-Adamantylmethoxy)-5-fluoro-2-methoxy-3-pyridyl]methyl]-pyrrolidine-2-carboxamide; 2,2,2-trifluoroacetic Acid], the pEC50 is more than 7.70 and the Emax was more than 70%.

Turning to `COc1nc(O[C@H]2CC[C@H](C(F)(F)F)CC2)c(F)cc1CNC(=O)[C@H]1NC[C@@H]1C` [Example 80, (2S,3 S)—N-[[5-Fluoro-2-methoxy-6-[4-(trifluoromethyl)cyclohexoxy]-3-pyridyl]methyl]-3-methyl-azetidine-2-carboxamide; Fumaric Acid], the pEC50 is 6.70 to 7.70 and the Emax is more than 70%. As to `COc1nc(OC2CCC(C(F)(F)F)CC2)c(F)cc1CNC(=O)[C@H]1NC[C@@H]2C[C@@H]21` (stereo partly drawn) [Example 85, (1R,4S,5S)—N-[[5-Fluoro-2-methoxy-6-[4-(trifluoromethyl)cyclohexoxy]-3-pyridyl]methyl]-3-azabicyclo[3.1.0]hexane-4-carboxamide Hydrochloride], the pEC50 was more than 7.70 and the Emax was in the range of 30 to 50%. On the same counts, the results for `COc1nc(O[C@H]2C[C@H](C(F)(F)F)C2)c(F)cc1CN(C)C(=O)[C@@H]1CCCN1` [Example 120, (2S)—N-[[5-Fluoro-2-methoxy-6-[trans-3-(trifluoromethyl)cyclobutoxy]-3-pyridyl]-methyl]-N-methyl-pyrrolidine-2-carboxamide Hydrochloride] are more than 7.70 and 50 to 70%. As to `COc1nc(O[C@H]2C[C@@H](C(F)(F)F)C2)c(F)cc1CN(C)C(=O)[C@@H]1CCCN1` [Example 121, (2S)—N-[[5-Fluoro-2-methoxy-6-[cis-3-(trifluoromethyl)cyclobutoxy]-3-pyridyl]methyl]-N-methyl-pyrrolidine-2-carboxamide Hydrochloride], the pEC50 is more than 7.70 and the Emax lay within 50 to 70%.

Consider `COc1nc(OCc2cc(F)cc(F)c2)c(F)cc1CN(C)C(=O)[C@@H]1CCCN1` [Example 122, (2S)—N-[[6-[(3,5-Difluorophenyl)methoxy]-5-fluoro-2-methoxy-3-pyridyl]methyl]-N-methyl-pyrrolidine-2-carboxamide Hydrochloride], for which the negative-log EC50 (pEC50) was more than 7.70 and the Emax is more than 70%.

With `COc1nc(OC2CCC(F)(F)C2)c(F)cc1CN(C)C(=O)[C@@H]1CCCN1` (stereo partly drawn) [Example 123, (2S)—N-[[6-(3,3-Difluorocyclopentoxy)-5-fluoro-2-methoxy-3-pyridyl]methyl]-N-methyl-pyrrolidine-2-carboxamide Hydrochloride], the pEC50 was more than 7.70 and the Emax lay in the range of 50 to 70%. As for `COc1nc(OCc2ccc(F)cc2)c(F)cc1CN(C)C(=O)[C@@H]1CCCN1` [Example 124, (2S)—N-[[5-Fluoro-6-[(4-fluorophenyl)methoxy]-2-methoxy-3-pyridyl]methyl]-N-methyl-pyrrolidine-2-carboxamide Hydrochloride], the pEC50 is 6.70 to 7.70 and the Emax lay within 50 to 70%. On the same counts, the results for `COc1nc(CC2CCCCC2)c(F)cc1CNC(=O)[C@@H]1CCCN1` [Example 129, (2S)—N-[[6-(Cyclohexylmethyl)-5-fluoro-2-methoxy-3-pyridyl]methyl]pyrrolidine-2-carboxamide] are more than 7.70 and more than 70%. The like results for `COc1nc(N2CCCC2)c(F)cc1CNC(=O)[C@@H]1CCCN1` [Example 135, (2S)—N-[(5-Fluoro-2-methoxy-6-pyrrolidin-1-yl-3-pyridyl)methyl]pyrrolidine-2-carboxamide; 2,2,2-trifluoroacetic Acid] were, in that order, 6.70 to 7.70 and more than 70%. For `COc1nc(N2C[C@@H]3CC(F)(F)C[C@@H]3C2)c(F)cc1CNC(=O)[C@@H]1CCCN1` [Example 181, (2S)—N-[[6-[(3aR,6aS)-5,5-Difluoro-1,3,3a,4,6,6a-hexahydrocyclopenta[c]pyrrol-2-yl]-5-fluoro-2-methoxy-3-pyridyl]methyl]pyrrolidine-2-carboxamide; 2,2,2-trifluoroacetic Acid], the pEC50 was more than 7.70. For the compound `COc1nc(C(F)(F)C(Cl)c2ccccc2)c(F)cc1CN(C)C(=O)C1CCCN1` (stereo not drawn) [Example 192, N-[[6-(2-Chloro-1,1-difluoro-2-phenyl-ethyl)-5-fluoro-2-methoxy-3-pyridyl]-methyl]-N-methyl-pyrrolidine-2-carboxamide Dihydrochloride], the pEC50 was 6.00 to 6.70 and the Emax lay within 50 to 70%.

Source of the values: US20190062305A1, “PYRIDYL OR PYRAZINYL COMPOUNDS CARRYING A METHYL-BOUND ALPHA-AMINO ACID AMIDE GROUP” (ABBVIE DEUTSCHLAND GMBH & CO. KG, priority 2015, published 2019).
